# Columns and labels:
# [1] = tested on: mouse; assay: Single oral dose toxicity in mouse; type: in vivo
# [2] = tested on: nerve growth factor production by L-M cells; assay: Enhancement of nerve growth factor production in L-M cells (enzyme immunoassay); type: cell-based, Rat
# Experimental: Rat fibroblast L-M cells (ATCC CCL-1.2) were suspended in a M199 medium (Gibco) containing 0.5% Bacto Peptone (Gibco) at a concentration of 1.0 x 10^5 cells/ml. 1 ml of the suspension was inoculated into each well of a 24-well plate. The cells were cultured aseptically. After culturing for 2 days, the medium was removed and substituted with a M199 medium containing 0.5% bovine serum albumin (Sigma). Then, cyclopentenone (final concentration of 1 to 25 µM), 4HCP (Aldrich) (final concentration of 12.5µM) or dipropionylcyclopentenone (final concentration of 3.1 to 9.4 µM) was added thereto. […]
# After completion of the incubation, the concentration of nerve growth factor in the culture was measured by enzyme immunoassay (NGF Emax Immuno Assay System: Promega). […]
# [3] = tested on: human insulin-like growth factor-1 (h-IGF-1) production in Hs68 cells; assay: Enhancement of h-IGF-1 production in Hs68 cells (ELISA); type: cell-based
# Experimental: (1) Human newborn foreskin […] Hs68 cells (ATCC CRL-1635) were cultured in a D-MEM medium (Bio Whittaker) containing 10% fetal calf serum (FBS; Gibco BRL) in the presence of 5% CO2 at 37°C to saturation in a culture vessel. Then, the cells were suspended in the medium at a concentration of 3 x 10^5/ml using a trypsin-EDTA solution (Bio Whittaker). 200 µl of the suspension was dispensed into each well of a 96-well microtiter plate. When the cells were almost saturated in the culture vessel after culturing for 5 days, the medium was discarded and a medium containing 4HCP at a concentration of 40, 100 or 200 µM was added thereto. The culture supernatant was recovered at intervals of 24 hours for up to 96 hours. The effect of 4HCP on enhancement of human insulin-like growth factor-1 (h-IGF-1) production in Hs68 cells was determined using ELISA-Kit for h-IGF-1 (Diagnostic System Labo).
# (2) Hs68 cells were cultured in a D-MEM medium containing 10% fetal calf serum in the presence of 5% CO2 at 37°C to saturation in a culture vessel. Then, the cells were suspended in the medium at a concentration of 3 x 10^5/ml using a trypsin-EDTA solution. 200 µl of the suspension was dispensed into each well of a 96-well microtiter plate. When the cells were almost saturated in the culture vessel after culturing for 5 to 7 days, the medium was discarded and the medium containing cyclopentenone or GM at a concentration of 0, 2.5, 5, 10 or 20 µM was added thereto. The culture supernatant was recovered at 1, 3, 6, 12, 24 or 48 hours. The effect of cyclopentenone or GM on the production (enhancement of expression) of h-IGF-1 in Hs68 cells was determined using ELISA-Kit for h-IGF-1. […] The amount of h-IGF-1 produced 6 hours after the addition was about twice the amount for the control with no addition. […] (3) Hs68 cells were cultured in a D-MEM medium containing 10% fetal calf serum in the presence of 5% CO2 at 37°C to saturation in a culture vessel. Then, the cells were suspended in the medium at a concentration of 3 x 10^5/ml using a trypsin-EDTA solution. 200 µl of the suspension was dispensed into each well of a 96-well microtiter plate. When the cells were almost saturated in the culture vessel after culturing for 5 to 7 days, the medium was discarded and the medium containing 4HCP, a compound of formula (XVIII) (4HCP-GSH) or glutathione (GSH) at a concentration of 0, 25, 50, 100 or 200 µM was added thereto. The culture supernatant was recovered at 1, 3, 6, 12, 24 or 48 hours. The effect on the production (enhancement of expression) of h-IGF-1 in Hs68 cells was determined using ELISA-Kit for h-IGF-1. As a result, when 4HCP was added at a concentration of 25 to 200 µM, h-IGF production in Hs68 cells became maximal at 1 hour and decreased thereafter as the time went by. […] Significant enhancement of h-IGF-1 production was observed when cultured for 10 to 30 minutes. […]
# [4] = tested on: HGF production, MRC-5 cells; assay: Enhancement of HGF production in MRC-5 cells (ELISA); type: cell-based, Human; settings: 24 hours, negative control defined as 100% (7.2 ng/ml)
# Experimental: MRC-5 cells (CCL171, Dainippon Pharmaceutical) were suspended in a DME medium (Bio Whittaker) containing 10% fetal calf serum at a concentration of 1 x 10^5 cells/ml. 500 µl of the suspension was placed into a 48-well cell culture plate. After culturing at 37°C in the presence of 5% CO2 for 24 hours, the medium was exchanged for a DME medium containing 1% fetal calf serum. Then, one of samples was added thereto. The plate was incubated for additional 24 hours. The medium was then recovered, and the amount of HGF in the culture medium was measured using Quantikine Human Hepatocyte Growth Factor (HGF) ELISA Kit (Funakoshi). The amount of HGF produced was expressed defining a negative control as 100%. In this case, the amount of HGF produced for the negative control was 7.2 ng/ml. Cyclopentenone (at a final concentration of 20, 40 or 160 µM), GM (at a final concentration of 20, 40, 80 or 160 µM), or dipropionylcyclopentenone (at a final concentration of 32 or 64 µM) was added as a sample. As a negative control, distilled water was added in the same volume as the sample. As a positive control, prostaglandin E1 was added at a final concentration of 0.01, 0.1, 1 or 10 µM.
# [5] = single dose orally administered to a mouse at 100 mg/kg
# [6] = Example 3-(3): 100 µM, cultivation time 1 hour, control 7.2
# [7] = Example 3-(3): 100 µM, cultivation time 3 hour, control 8.9
# [8] = Example 3-(3): 100 µM, cultivation time 6 hour, control 6.3
# [9] = Example 3-(3): 100 µM, cultivation time 12 hour, control 0
# [10] = Example 3-(3): 100 µM, cultivation time 24 hour, control 0
# [11] = Example 3-(3): 100 µM, cultivation time 48 hour, control 0
# [12] = Example 3-(3): 200 µM, cultivation time 1 hour, control 7.2
# [13] = Example 3-(3): 200 µM, cultivation time 3 hour, control 8.9
# [14] = Example 3-(3): 200 µM, cultivation time 6 hour, control 6.3
# [15] = Example 3-(3): 200 µM, cultivation time 12 hour, control 0
# [16] = Example 3-(3): 200 µM, cultivation time 24 hour, control 0
# [17] = Example 3-(3): 200 µM, cultivation time 48 hour, control 0
compound,measurement,setting,value
O=C(OC1C=CC(=O)C1OC(=O)c1ccccc1)c1ccccc1 (stereo not shown),death after single oral dose,[1]; [5],no example of death was observed
"CC(C)(C)OC1C=CC(=O)C1OC(C)(C)C (stereo not shown) [4,5-di-t-butylcyclopentenone ether]",death after single oral dose,"[1]; mouse, in vivo, po, 100 mg/kg",no example of death was observed
"O=C1C=CC(O)C1 (stereo not shown) [4HCP, 4-hydroxy-2-cyclopenten-1-one]",Nerve growth factor concentration,"[2]; 12.5 µM, 24 hours, 0 µM control 0.138 (Table 2)",0.327 ng/mL
same,production of nerve growth factor by L-M cells (result in words),[2]; 24 hours incubation,enhanced the production of nerve growth factor by L-M cells in a concentration-dependent manner
same,Activity of enhancing h-IGF-1 production,"[3]; Example 3-(1): 40 µM, cultivation time 24 hour, control 0",0 ng/mL
same,Activity of enhancing h-IGF-1 production,"[3]; Example 3-(1): 40 µM, cultivation time 48 hour, control 0",0 ng/mL
same,Activity of enhancing h-IGF-1 production,"[3]; Example 3-(1): 40 µM, cultivation time 72 hour, control 0",0 ng/mL
same,Activity of enhancing h-IGF-1 production,"[3]; Example 3-(1): 40 µM, cultivation time 96 hour, control 0",0 ng/mL
same,time at which the activity of enhancing h-IGF production in Hs68 cells became maximal,"[3]; Example 3-(1): 100 µM or more, sampled at 24, 48, 72, 96 hours",24 h
same,Activity of enhancing h-IGF-1 production,"[3]; Example 3-(1): 100 µM, cultivation time 24 hour, control 0",39.9 ng/mL
same,Activity of enhancing h-IGF-1 production,"[3]; Example 3-(1): 100 µM, cultivation time 48 hour, control 0",10.0 ng/mL
same,Activity of enhancing h-IGF-1 production,"[3]; Example 3-(1): 100 µM, cultivation time 72 hour, control 0",9.6 ng/mL
same,Activity of enhancing h-IGF-1 production,"[3]; Example 3-(1): 100 µM, cultivation time 96 hour, control 0",4.4 ng/mL
same,Activity of enhancing h-IGF-1 production,"[3]; Example 3-(1): 200 µM, cultivation time 24 hour, control 0",37.9 ng/mL
same,Activity of enhancing h-IGF-1 production,"[3]; Example 3-(1): 200 µM, cultivation time 48 hour, control 0",10.4 ng/mL
same,Activity of enhancing h-IGF-1 production,"[3]; Example 3-(1): 200 µM, cultivation time 72 hour, control 0",9.9 ng/mL
same,Activity of enhancing h-IGF-1 production,"[3]; Example 3-(1): 200 µM, cultivation time 96 hour, control 0",4.2 ng/mL
same,Activity of enhancing IGF-1 production,"[3]; Example 3-(3): 25 µM, cultivation time 1 hour, control 7.2",30.6 ng/mL
same,Activity of enhancing IGF-1 production,"[3]; Example 3-(3): 25 µM, cultivation time 3 hour, control 8.9",29.5 ng/mL
same,Activity of enhancing IGF-1 production,"[3]; Example 3-(3): 25 µM, cultivation time 6 hour, control 6.3",9.6 ng/mL
same,Activity of enhancing IGF-1 production,"[3]; Example 3-(3): 25 µM, cultivation time 12 hour, control 0",0 ng/mL
same,Activity of enhancing IGF-1 production,"[3]; Example 3-(3): 25 µM, cultivation time 24 hour, control 0",0 ng/mL
same,Activity of enhancing IGF-1 production,"[3]; Example 3-(3): 25 µM, cultivation time 48 hour, control 0",0 ng/mL
same,Activity of enhancing IGF-1 production,"[3]; Example 3-(3): 50 µM, cultivation time 1 hour, control 7.2",49.5 ng/mL
same,Activity of enhancing IGF-1 production,"[3]; Example 3-(3): 50 µM, cultivation time 3 hour, control 8.9",42.1 ng/mL
same,Activity of enhancing IGF-1 production,"[3]; Example 3-(3): 50 µM, cultivation time 6 hour, control 6.3",27.8 ng/mL
same,Activity of enhancing IGF-1 production,"[3]; Example 3-(3): 50 µM, cultivation time 12 hour, control 0",0 ng/mL
same,Activity of enhancing IGF-1 production,"[3]; Example 3-(3): 50 µM, cultivation time 24 hour, control 0",0 ng/mL
same,Activity of enhancing IGF-1 production,"[3]; Example 3-(3): 50 µM, cultivation time 48 hour, control 0",0 ng/mL
same,expression of h-IGF-1 (result in words),"[3]; Example 3-(3): 100 µM or more, at 48 hours",expression of h-IGF-1 was observed
same,Activity of enhancing IGF-1 production,[3]; [6],52.8 ng/mL
same,Activity of enhancing IGF-1 production,[3]; [7],47.2 ng/mL
same,Activity of enhancing IGF-1 production,[3]; [8],31 ng/mL
same,Activity of enhancing IGF-1 production,[3]; [9],22.1 ng/mL
same,Activity of enhancing IGF-1 production,[3]; [10],25.6 ng/mL
same,Activity of enhancing IGF-1 production,[3]; [11],32 ng/mL
same,Activity of enhancing IGF-1 production,[3]; [12],59.2 ng/mL
same,Activity of enhancing IGF-1 production,[3]; [13],51.7 ng/mL
same,Activity of enhancing IGF-1 production,[3]; [14],44.4 ng/mL
same,Activity of enhancing IGF-1 production,[3]; [15],42.1 ng/mL
same,Activity of enhancing IGF-1 production,[3]; [16],50.3 ng/mL
same,Activity of enhancing IGF-1 production,[3]; [17],50.2 ng/mL
same,time at which h-IGF production in Hs68 cells became maximal,"[3]; Example 3-(3): 25 to 200 µM, sampled at 1 to 48 hours",1 h
same,death after single oral dose,"[1]; mouse, in vivo, po, 100 mg/kg",no example of death was observed
NC(CCC(=O)NC(CSC1CC(=O)CC1O)C(=O)NCC(=O)O)C(=O)O (stereo not shown) [4HCP-GSH],Activity of enhancing IGF-1 production,[3]; [6],8.4 ng/mL
same,Activity of enhancing IGF-1 production,[3]; [7],12 ng/mL
same,Activity of enhancing IGF-1 production,[3]; [8],10.6 ng/mL
same,Activity of enhancing IGF-1 production,[3]; [9],6.1 ng/mL
same,Activity of enhancing IGF-1 production,[3]; [10],6.7 ng/mL
same,Activity of enhancing IGF-1 production,[3]; [11],1.4 ng/mL
same,Activity of enhancing IGF-1 production,[3]; [12],33.3 ng/mL
same,Activity of enhancing IGF-1 production,[3]; [13],37.9 ng/mL
same,Activity of enhancing IGF-1 production,[3]; [14],24.7 ng/mL
same,Activity of enhancing IGF-1 production,[3]; [15],20.4 ng/mL
same,Activity of enhancing IGF-1 production,[3]; [16],20.9 ng/mL
same,Activity of enhancing IGF-1 production,[3]; [17],27.8 ng/mL
same,activity of enhancing h-IGF-1 (result in words),[3]; Example 3-(3): 100 to 200 µM,exhibit an activity of enhancing h-IGF-1 in a concentration-dependent manner
"N[C@@H](CCC(=O)N[C@@H](CSC1C=C(O)C(=O)C1)C(=O)NCC(=O)O)C(=O)O (stereo partly shown) [GM, 2-hydroxy-4-glutathion-S-yl-2-cyclopenten-1-one]",production of h-IGF-1 in Hs68 cells (result in words),[3]; Example 3-(2): 10 to 20 µM,production of h-IGF in Hs68 cells was observed 3 hours after the addition
same,amount of h-IGF-1 produced relative to the control with no addition,"[3]; Example 3-(2): 10 to 20 µM, 6 hours after the addition",about twice
same,death after single oral dose,"[1]; mouse, in vivo, po, 100 mg/kg",no example of death was observed
same,Increase in HGF production,[4]; 20 µM,154%
same,Increase in HGF production,[4]; 40 µM,179%
same,Increase in HGF production,[4]; 80 µM,243%
same,Increase in HGF production,[4]; 160 µM,319%
CCCCCC(=O)OC1C=CC(=O)C1OC(=O)CCCCC (stereo not shown) [dihexanoylcyclopentenone],death after single oral dose,[1]; [5],no example of death was observed
"N[C@@H](CCC(=O)N[C@@H](CS)C(=O)NCC(=O)O)C(=O)O [glutathione, reference compound]",activity of enhancing h-IGF-1 (result in words),"[3]; Example 3-(3): glutathione alone added, 25 to 200 µM",no significant activity of enhancing h-IGF-1 was observed
di-2-hexenoylcyclopentenone,death after single oral dose,[1]; [5],no example of death was observed
